Data published in US9910031B2, “Compositions and methods for modulating c-Rel-dependent cytokine production” (Synta Pharmaceuticals Corporation, priority 2003, dated 2018).

Tests used:
IL-12 p70 = experiment: Inhibition of production of IL-12 p70 protein; assay type: cell-based, human; conditions: Homo sapiens; 1 μM Compound 1; 10 mM ASA; read-out: percent inhibition of production of IL-12 p70 protein
Description: Cells were co-transfected with the vector pCMV (BD Biosciences Clontech) in which the constitutively active CMV promoter directs β-galactosidase expression for the monitoring of transfection efficiency. Luciferase and β-galactosidase activity were determined in cell extracts prepared according to the Luciferase assay system (Promega) and Luminescent n-gal Detection system (BD Biosciences Clontech). Luciferase activity was then normalized using the β-galactosidase value. […] ELISA was performed by the following method. Human IL-12 p70 (heterodimer) was assayed using ELI-PAIR kit from Cell Sciences (Norwood, Mass.), according to the manufacturer's instructions. Human IL-12 p40 was assayed using ELISA kit from Cell Sciences (Norwood, Mass.) according to the manufacturer's instructions.
The extracts obtained from this process were used in gel-shift assays using oligonucleotides containing the NFκB target sequence corresponding to the region −121 to −102 from the transcription initiation site of IL-12 p40 or a mutated NFκB binding site. […] This interaction was specific as it was competed away by an excess of unlabeled probe, but not by a mutated oligonucleotide in which two base-pairs were substituted. […] This is expected since a compound that potently blocks NFkB have a far broader cytokine inhibitory profile than Compound 1/Compound 2.

IL-12 p35 mRNA = experiment: Northern blot of IL-12 p35 mRNA in IFN-γ/SAC-stimulated THP-1 cells; assay type: cell-based, human; conditions: THP-1, IFN-γ/SAC, 1 μM Compound 1
Description: (§1) Northern blot analysis was performed to examine the mRNA levels of IL-12 p35 and p40. Human PBMC and the human monocyte cell line THP-1 cells were stimulated with IFN-γ/SAC in the presence or absence of Compound 1. Human PBMC were isolated by centrifugation using Ficoll-Paque (Pharmacia Biotech, Uppsala, Sweden) and prepared in RPMI medium supplemented with 10% fetal calf serum (FCS), 100 U/ml penicillin, and 100 μg/ml streptomycin, in a 96-well plate with 5×10^5 cells/well. The cells were then primed with IFN-γ (100 U/ml) and followed by 0.01% SAC or 1 μg/ml LPS, in the presence of different concentrations of Compound 2 or other compounds. The test compounds were prepared in DMSO and the final DMSO concentration was adjusted to 0.25% in all cultures, including the compound-free control. Cell-free supernatants were taken 18 h later for the measurement of cytokines. The THP-1 cells were obtained from American Type Culture Collection (Manassas, Va.) and were cultured in RPMI 1640 (ATCC, Manassas, Va.), supplemented with 10% FCS (ATCC, Manassas, Va.), and 1% penicillin/Streptomycin (Gibco-BRL, New York, N.Y.). Total RNA was isolated and subjected to Northern blot analysis using IL-12 p35 and p40 cDNA probes. We first examined the kinetics of mRNA accumulation in cultures of hPBMC and THP-1 cells primed with IFN-γ followed by SAC stimulation in the presence or absence of 1 μM Compound 1.

PU-1 = experiment: Western blot of PU-1 in THP-1 nuclear extracts (Ets-2 DNA element beads); assay type: cell-based, human
Text: Of the transcription factors that have been analyzed, two factors, ICSBP and c-Rel, seem to be affected by Compound 1/Compound 2 treatment. ICSBP binds indirectly to the Ets-2 site. The primary NFκB trans-activator for IL-12 is the c-Rel/p50 heterodimer. Other dimers (p65/p50 and p50/p50) either lack activity or have inhibitory functions. Thus, c-Rel plays a role in IL-12 transcription as a result of both activation through NFκB and its interaction with ICSBP. […] The membranes were blocked with 5% milk in TBST buffer and then incubated with anti-c-Rel, anti-p65, anti-p50, anti-ICSBP or anti-PU-1 antibody (all the antibodies were purchased from Santa Cruz) at a dilution of 1:500 for 1 h at room temperature or overnight at 4° C. The membranes were washed and incubated with Horseradish Peroxidase-conjugated anti-rabbit IgG or anti-mouse IgG (Amersham, England) at a dilution of 1:2000 at room temperature for 1 h.
The transcription factor ICSBP binds to the Ets-2 element indirectly through binding to PU-1. Nuclear extracts were bound to Ets-2 DNA element beads, the beads isolated to separate bound from free protein, and the proteins analyzed on Western blots using antibodies to either ICSBP or PU-1. […] Eluted materials were separated by 10% SDS-PAGE and detected by immunoblot analysis using anti-ICSBP or anti-PU-1 antibody.

IL-12 p40 mRNA [1] = experiment: Northern blot of IL-12 p40 mRNA in IFN-γ/SAC-stimulated human PBMC; assay type: cell-based; conditions: hPBMC; for IL-12 p40 mRNA accumulation: 6 h after SAC
Description: as §1
We conducted a dose-response study of the inhibitory effects of Compound 1 on IL-12 mRNA expression in IFN-γ/SAC-stimulated hPBMC. Because both IL-12 p35 and p40 mRNA levels were maximal at 6 h after the addition of SAC, this time point was selected for the dose-response analysis.

IL-12 p40 mRNA [2] = experiment: Northern blot of IL-12 p40 mRNA in IFN-γ/SAC-stimulated THP-1 cells; assay type: cell-based, human; conditions: THP-1, IFN-γ/SAC, 1 μM Compound 1
Description: as §1

IκBα = experiment: Inducible degradation of IκBα, Western blot and FACS analysis; assay type: cell-based, human; conditions: THP-1 and RAW267.4 cells, IFN-γ/LPS or IFN-γ/SAC, 500 nM, 30 min and 2 hrs
Description: IκB degradation is one of the steps in the signaling pathway of NFκB dependent genes. The activity of Compound 2 in inducible degradation of IκBα □ and IκBβ was investigated in THP-1 cells using Western blot and FACS analysis. […] Similar results were observed from the Compound 2 pre-treatment samples in which Compound 2 was added […] before stimulation.

SMILES	inhibition at 1 µM (IL-12 p70) [%]	IL-12 p35 mRNA (IL-12 p35 mRNA)	levels of PU-1 (FIG. 6) (PU-1)	expression of the mRNA for the p40 subunit (IL-12 p40 mRNA [1]; 1 μM Compound 1)	IL-12 p40 mRNA accumulation (IL-12 p40 mRNA [1]; 1 nM)	IL-12 p40 mRNA accumulation (IL-12 p40 mRNA [1]; 10 nM)	expression of the p40 message (IL-12 p40 mRNA [2])	amount of IκBα in the cytoplasm, treated vs untreated (IκBα)
C(=NNc1nc(OCCc2ccccn2)nc(N2CCOCC2)n1)c1c[nH]c2ccccc12 [Compound 1, N-(1H-indol-3-ylmethylene)-N′-[4-morpholin-4-yl-6-(2-pyridin-2-yl-ethoxy)-[1,3,5]triazin-2-yl]-hydrazine]	97	undetectable	unaffected	reduced significantly but incompletely	barely inhibited	maximum, though still incomplete inhibition	significantly but incompletely reduced	–
Cc1cccc(C=NNc2cc(N3CCOCC3)nc(OCCc3ccccn3)n2)c1 [Compound 2, N-(3-methyl-benzylidene)-N′-[6-morpholin-4-yl-2-(2-pyridin-2-yl-ethoxy)-pyrimidin-4-yl]-hydrazine]	–	–	–	–	–	–	–	no significant difference
